# Key:
# [1] = tested on: taxane-refractory breast cancer explant; test: Human refractory breast cancer explant, immunohistochemistry; conditions: ex vivo 72 h, taxane-containing regimen or Doxil, N=7
# Protocol: Anonymous human breast cancer tissues (N=7) from patients refractory to taxane-containing regimens were incubated ex vivo in autologous patient serum in the presence or absence of taxane-containing or liposomal doxorubicin (Doxil) regimens for 72 hours. Following fixation in formalin and paraffin embedding, tissue was processed by H&E to identify tumor cells and immunohistochemistry (IHC) was performed to identify protein expression. IHC scores were determined in a third party blinded fashion by multiplying the intensity of staining at the cellular level with the percentage of cells stained per field of view.
# Fresh tumor tissues were collected from breast cancer patients immediately after surgical resection at HCG cancer hospital, Bangalore, India. The tumor samples were transported to the laboratory at 4° C., in appropriate transport buffer within 60 minutes post-resection, for ex-vivo studies and molecular and pathological evaluation. […] After 48 hrs of treatment, tumor cell viability was measured and release of soluble cleaved caspase-3 and caspase-8 were determined.
# Human Tumor tissues were fixed in Phos stop (Roche) containing 4% buffered formalin and embedded in paraffin. […] Immunoreactivity was scored by intensity of staining (0, no staining, 1 weak; 2 moderate; 3 strong) and percentage of positive cells. By multiplying both values, a final score was calculated. […]
# MDA-MB-231 (231) = test: CD44 surface expression by FACS in 231 cells; assay type: cell-based, human; conditions: 4 hours post treatment, increasing doses
# Protocol: MDA-MB-231, MDA-MB-468 were purchased from ATCC. For acute treatments, cells were plated at a density of 0.5-1×10^5 cells/ml and allowed to adhere for 24-48 hr. when cells reached ˜70% confluency they were treated with antitubulins at indicated concentrations for 4-24 hours and utilized for subsequent assays. To generate chemotherapy tolerant subset, cells were treated with indicated concentrations of chemotherapy (48). Following washes with PBS, adherent cells were trypsinized and re-plated at a density of 1.5-2×10^5 cells/ml and cultured in serum-containing medium. […]
# Cells were cultured as indicated and fixed with 4% paraformaldehyde in PBS for 30 min at RT and blocked in 10% goat serum (v/v). Following PBS washes, cells were incubated with indicated antibodies for 60 minutes at room temperature or overnight at 4 C and analyzed by FACS (Accuri cyomteters Inc. Ann Arbor, Mich.). Cell cycle analyzed in propidium iodide solution following incubation in 70% Ethanol overnight at 4 C and following manufacturer protocol (Genscript USA Inc. Piscataway, N.J.). AnnexinV/PI was analyzed FACS following manufacturer protocol (BD, Ann Arbor Mich.). All FACS results were analyzed by FlowJo™ software following a rigorous doublet discrimination based on FSC:A vs. width as well as FSC:A vs. height (Tree Star Inc., Ashland Oreg.). […]
# [2] = tested on: 4T-1 mouse mammary carcinoma; test: 4T-1 tumor growth in Balb/C mice; assay type: in vivo
# Protocol: 4-6 week old Balb/C mice (Charles River, Cambridge Mass.) were inoculated with 10^6 4 T-1 mouse mammary carcinoma cells in the left flank (Charles River, Cambridge Mass.). Mice identified with tumors were treated with docetaxel (DTX) or vehicle twice at 72 hour intervals at 10 mg/kg i.v. or 15 mg/kg i.p. and subsequently treated with dasatinib i.p. or nanoparticles i.v. 72 hours following the final DTX dose. Tumors were harvested at indicated time points and evaluated for protein phosphorylation and expression. Experimental detail provided in supplemental data.
# 1 million 4T-1 mouse mammary carcinoma cells suspended in 100 µL PBS were injected per left flank of 5-6 week old Balb/C (Charles River, Wilmington Mass.). DTX was dissolved in pure Ethanol at a concentration of 50 mg/ml mixed 1:1 with Polysorbate 80 (Tween 80) and brought to a final working concentration with 5% glucose in PBS. Once Tumors became palpable (˜100 mm^3), DTX or vehicle treatments were administered at 100 μL volumes. Dasatinib was dissolved in DMSO to working concentration and delivered as 50 μL injections on indicated days, 50 µL DMSO used as a control in these studies. Tumor volumes were measured by a third party unaware of treatment conditions using digital calipers (Starlett, Athol, Mass.), volumes were assessed by the following formula: (Width×Width×length)/2 and expressed as relative volume increase from day 1. Tumor homogenate was prepared by homogenization of equal weight tissue sections incubated in 3×RIPA buffer containing 2× protease/phosphatase inhibitor cocktail (Thermo Fisher, Waltham, Mass.).
smiles,measurement,setting,value
"CC(=O)O[C@@]12CO[C@@H]1C[C@H](O)[C@@]1(C)C(=O)[C@H](O)C3=C(C)[C@@H](OC(=O)[C@H](O)[C@@H](NC(=O)OC(C)(C)C)c4ccccc4)C[C@@](O)([C@@H](OC(=O)c4ccccc4)[C@H]21)C3(C)C [DTX, docetaxel]",CD44 expression (IHC),[1],induced the over-expression of CD44
same,CD44 induction,MDA-MB-231 (231),dose-dependent manner
same,tumor re-emergence after treatment,"[2]; DTX days 2 and 5, day 19",re-emerged robustly by day 19
same,tumor growth (relative tumor volume),"[2]; DTX days 2 and 5 at 10 mg/kg i.v. and 15 mg/kg i.p., vs vehicle",inhibited tumor growth

# Source: US10813931B2, “Methods and compositions relating to the treatment of cancer” (THE BRIGHAM AND WOMEN'S HOSPITAL, INC., priority 2013, dated 2020)
